# Source: US6673813B2, “Methods for identifying and treating resistant tumors” (priority 1994, dated 2004)
# Read-outs that look alike come from different tables or passages of the source.
# Experiments:
# HL60/ADR cells = assay: Cytotoxicity of oncolytics in doxorubicin-resistant HL60/Adr cells; format: cell-based; settings: Homo sapiens
# From the text: (§1) See Marquardt, D., McCrone, S., and Center M. S., Cancer Res., 50: 1426, (1990). The mechanism(s) utilized by P190 to confer resistance to Adriamycin is not well understood but may involve the intracellular redistribution of Adriamycin away from the nucleus. See Marquardt, D. and Center, M. S., supra. Adriamycin is an inhibitor of topoisomerase II (Beck, W. T., Bull. Cancer, 77: 1131, (1990), which is an enzyme involved in DNA replication. Redistribution of Adriamycin away from the nucleus would therefore be an important component in cellular resistance to this drug. The studies published to date on P190 have utilized cell lines selected in vitro for resistance to Adriamycin (McGrath, T., Latoud, C., Arnold, S. T., Safa, A. R., Felsted, R. S., and Center, M. S., supra; Marquardt, D. and Center, M. S., supra; and Marquardt, D., McCrone, S., and Center M. S. Cancer Res., supra. The association of MRP (P190) with drug resistance was made by sodium dodecyl sulfate polyacrylamide gel electrophoresis (SDS-PAGE) of radioactive extracts prepared from Adriamycin-resistant HL60/Adr human leukemia cells labeled with 8-azido-alpha[^32P]ATP. See McGrath, T., Latoud, C., Arnold, S. T., Safa, A. R., Felsted, R. S., and Center, M. S., supra. The drug-resistance phenotype conferred by P190 is not limited to the anthracyclines. Epipodophyllotoxin resistance is linked to P190 expression. […]
# HL60/S cells = assay: Cytotoxicity of oncolytics in sensitive HL60/S cells; format: cell-based; settings: Homo sapiens, HL-60
# From the text: as §1
# MRP [1] = biological target: T1, MRP (Homo sapiens, UniProt P33527); assay: ATP-dependent transport of [3H]etoposide glucuronide / [3H]etoposide into membrane vesicles from MRP-overexpressing cells; settings: direct transport measurement in membrane vesicles
# T1 sequence (P33527 whole entry): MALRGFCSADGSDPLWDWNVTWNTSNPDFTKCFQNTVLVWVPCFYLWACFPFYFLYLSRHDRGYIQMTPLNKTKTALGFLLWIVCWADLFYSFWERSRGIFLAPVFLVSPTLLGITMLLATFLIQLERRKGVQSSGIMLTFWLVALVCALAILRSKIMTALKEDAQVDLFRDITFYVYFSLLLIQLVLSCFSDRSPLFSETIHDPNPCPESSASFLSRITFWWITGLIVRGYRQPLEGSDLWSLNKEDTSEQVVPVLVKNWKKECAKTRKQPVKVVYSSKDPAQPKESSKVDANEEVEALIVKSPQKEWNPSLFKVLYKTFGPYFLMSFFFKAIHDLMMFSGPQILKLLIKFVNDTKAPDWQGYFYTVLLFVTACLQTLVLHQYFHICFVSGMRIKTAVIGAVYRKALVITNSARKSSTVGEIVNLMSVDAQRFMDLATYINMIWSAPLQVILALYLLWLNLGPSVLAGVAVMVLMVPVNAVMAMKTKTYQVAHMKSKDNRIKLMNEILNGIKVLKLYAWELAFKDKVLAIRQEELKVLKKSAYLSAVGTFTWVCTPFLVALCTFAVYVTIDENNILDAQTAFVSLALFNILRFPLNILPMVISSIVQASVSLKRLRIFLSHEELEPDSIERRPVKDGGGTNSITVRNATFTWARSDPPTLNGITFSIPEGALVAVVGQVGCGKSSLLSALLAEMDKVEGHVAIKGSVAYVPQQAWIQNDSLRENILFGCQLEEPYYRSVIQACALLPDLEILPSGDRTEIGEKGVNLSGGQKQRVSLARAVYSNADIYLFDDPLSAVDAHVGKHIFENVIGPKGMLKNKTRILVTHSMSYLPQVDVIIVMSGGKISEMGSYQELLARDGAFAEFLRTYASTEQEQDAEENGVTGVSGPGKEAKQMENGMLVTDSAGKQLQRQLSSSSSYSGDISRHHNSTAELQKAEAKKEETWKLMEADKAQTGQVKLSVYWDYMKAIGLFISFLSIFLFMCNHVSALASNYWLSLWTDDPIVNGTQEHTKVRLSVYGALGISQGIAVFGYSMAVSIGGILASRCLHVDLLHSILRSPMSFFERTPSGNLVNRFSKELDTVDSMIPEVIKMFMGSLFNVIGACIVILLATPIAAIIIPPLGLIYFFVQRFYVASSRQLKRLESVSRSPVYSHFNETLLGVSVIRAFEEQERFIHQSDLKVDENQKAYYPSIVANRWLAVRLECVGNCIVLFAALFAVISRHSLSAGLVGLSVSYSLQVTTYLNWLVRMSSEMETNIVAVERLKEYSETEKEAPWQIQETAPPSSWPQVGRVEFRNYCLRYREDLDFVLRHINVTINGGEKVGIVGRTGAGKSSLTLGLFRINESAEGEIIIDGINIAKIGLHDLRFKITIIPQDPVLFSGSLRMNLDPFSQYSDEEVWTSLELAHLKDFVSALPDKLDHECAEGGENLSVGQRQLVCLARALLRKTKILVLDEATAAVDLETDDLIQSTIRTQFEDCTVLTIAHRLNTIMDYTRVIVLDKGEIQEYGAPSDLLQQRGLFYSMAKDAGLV
# From the text: FIG. 5, Panel A illustrates the ATP-dependent transport of [^3H]etoposide glucuronide into membrane vesicles from MRP-overexpressing cells. Panel B provides a comparison of MRP-mediated ATP-dependent transport of [^3H]etoposide glucuronide and [^3H]etoposide into membrane vesicles from MRP-overexpressing cells.
# MRP [2] = biological target: T1, MRP; assay: ATP-dependent transport into membrane vesicles of MRP-overexpressing HL60/ADR cells; format: biochemical; parameters: HL60/ADR cells (human leukemia cells grown in adriamycin and overexpressing MRP); endogenous in cells; host or cells: HL60/ADR (Adriamycin-selected human HL60 leukemia cells), plasma membrane vesicles
# Experimental: (§2) HL60/ADR cells (human leukemia cells grown in adriamycin and overexpressing MRP), revertant HL60 cells, and parental HL60 cells, respectively, were harvested by centrifugation after cultivation in cell culture and plasma membrane vesicles were prepared according to standard methods. Briefly, the cells were lysed by incubation in hypotonic buffer (0.5 mM sodium phosphate (pH 7.0), 0.1 mM EDTA supplemented with protease inhibitors) for 1.5 hours, followed by homogenization in a homogenizer. After centrifugation of the homogenate at 12,000×g(4° C., 10 minutes), the supernatant was centrifuged at 100,000×g at 4° C. for 45 minutes. […] After centrifugation at 280,000×g at 4° C. for 2 hours, the interphase was collected, washed by centrifugation in incubation buffer (100,000×g) and passed 20 times through a 27-gauge needle.
# Membrane vesicles (50 μg of protein) were incubated in the presence of 4 mM ATP, 10 mM MgCl2, 10 mM of creatine phosphate, and the labeled substrate in an incubation buffer containing 250 mM sucrose and 10 mM Tris-HCl, pH 7.4. The final volume was 110 μl. Aliquots of 20 μl were taken at predetermined times and diluted in 1 ml of ice-cold incubation buffer. The dilute samples were filtered immediately through a nitrocellulose membrane (0.2 μm pore size), presoaked in incubation buffer using a rapid filtration device and rinsed twice with 5 ml incubation buffer. The filters were immersed in liquid and measured in a liquid scintillation counter. ATP was replaced by an equal concentration of 5′-AMP in a control experiment. All rates of the ATP-dependent transport were obtained by subtracting the values obtained in the presence of 5′-AMP from those measured in the presence of ATP.
# [3] = tested on: membrane vesicles of parental and revertant HL60 cells; assay: ATP-dependent transport into membrane vesicles of parental and revertant HL60 cells (low MRP expression); format: biochemical, human; settings: substrate 5 μM
# Experimental: as §2
# Membrane vesicles (50 μg of protein) were incubated in the presence of 4 mM ATP, 10 mM MgCl2, 10 mM of creatine phosphate, and the labeled substrate in an incubation buffer containing 250 mM sucrose and 10 mM Tris-HCl, pH 7.4. The final volume was 110 μl. […] The filters were immersed in liquid and measured in a liquid scintillation counter. […] All rates of the ATP-dependent transport were obtained by subtracting the values obtained in the presence of 5′-AMP from those measured in the presence of ATP.
Compound,IC50 (HL60/S cells) [µg/mL],substrate for MRP (MRP [1]),substrate for the MRP protein (MRP [2]),also measured
"COc1cccc2c1C(=O)c1c(O)c3c(c(O)c1C2=O)C[C@@](O)(C(=O)CO)C[C@@H]3O[C@H]1C[C@H](N)[C@H](O)[C@H](C)O1 [Adriamycin, Doxorubicin]",0.011,,,IC50 (HL60/ADR cells; HL60/ADR): 2.2 µg/mL
COc1cc([C@@H]2c3cc4c(cc3[C@@H](O[C@@H]3O[C@@H]5CO[C@@H](C)O[C@H]5[C@H](O)[C@H]3O)[C@H]3COC(=O)[C@H]23)OCO4)cc(OC)c1O [Etoposide],0.39,not a substrate for MRP,,"IC50 (HL60/ADR cells; HL60/Adr cells (express P190), read-out: IC50): > 10 µg/mL"
CCCCC/C=C\C\C=C/C=C/C=C/[C@@H](SC[C@H](N)C(=O)NCC(=O)O)[C@@H](O)CCCC(=O)O [LTD4],,,substrates,
CCCCC/C=C\C\C=C/C=C/C=C/[C@@H](SC[C@H](N)C(=O)O)[C@@H](O)CCCC(=O)O [LTE4],,,substrates,
"N[C@@H](CCC(=O)N[C@@H](CSc1ccc([N+](=O)[O-])cc1[N+](=O)[O-])C(=O)NCC(=O)O)C(=O)O [S-(2,4-dinitrophenyl-[^3H]glutathione, S-(2,4-dinitrophenyl)-[^3H]glutathione]",,,,"rate of ATP-dependent transport (MRP [2]; substrate 5 μM, HL60/ADR membranes): 50+4 pmol×mg protein^−1×min^−1; transport rate compared with HL60/ADR membranes [3]: 10 times less"
COc1cc([C@@H]2c3cc4c(cc3[C@@H](O[C@@H]3O[C@@H]5CO[C@@H](C)O[C@H]5[C@H](O)[C@H]3O)[C@H]3COC(=O)[C@H]23)OCO4)cc(OC)c1O[C@@H]1O[C@H](C(=O)O)[C@@H](O)[C@H](O)[C@H]1O [etoposide glucuronide],,mediated by MRP,,
